Measurements reported in US7582803B2 (Amgen Inc., priority 2005, dated 2009).
pEC50: −log10 of the molar value.

Target: T1, human GPR40 (Homo sapiens, UniProt O14842)
T1 construct: expressed in transfected cells; host or cells: CHO cells
Assay: Cell-based aequorin assay
Details: CHO cells stably transfected with GPR40 and aequorin; 0.01% HSA; aequorin luminescence; read-out: Relative EC50
Procedure: Cell-based aequorin assays were employed to characterize the modulatory activity of compounds on the GPR40 signaling pathway. In an exemplary assay, CHO cells were stably transfected with both GPR40 and Aequorin (Euroscreen). Cells were detached from the tissue culture dish with 2 mL of trypsin (0.25% (w/v)). Trypsinization was halted with 28 mL of Hanks Buffered Salt Solution containing 20 mM Hepes (H/HBSS) and 0.01% fatty acid-free human serum albumin (HSA). Coelantrazine is added to 1 ug/mL, and the cells were incubated for 2 hours at room temperature. Compounds were dissolved in DMSO for preparation of 10 mM stock solutions. Compounds were diluted in H/HBSS containing 0.01% HSA. Serial dilutions of the test compounds were prepared to determine dose response.
Aequorin luminescence measurements were made using an EG&G Berthold 96-well luminometer, and the response was measured over a 20 second interval after cells and compounds were mixed. The maximum relative light units was plotted to determine dose response. The EC50 (effective concentration to reach 50% maximal response) was determined from the dose response plot.
Table 1 presents representative data (EC50 values) obtained for exemplary compounds of the invention for the relative activation of human GPR40. […]

T1 sequence (O14842 whole entry): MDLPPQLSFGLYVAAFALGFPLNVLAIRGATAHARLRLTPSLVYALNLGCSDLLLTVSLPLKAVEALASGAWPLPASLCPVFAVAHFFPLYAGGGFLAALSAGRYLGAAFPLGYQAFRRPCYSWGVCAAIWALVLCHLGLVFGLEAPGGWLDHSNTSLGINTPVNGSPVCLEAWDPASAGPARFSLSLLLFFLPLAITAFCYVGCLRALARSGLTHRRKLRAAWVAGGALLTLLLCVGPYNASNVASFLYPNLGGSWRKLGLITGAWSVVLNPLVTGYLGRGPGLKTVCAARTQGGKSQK

Row | Compound | pEC50
1 | O=C(O)CC(c1ccc(OC2CCc3cc(Br)ccc32)cc1)n1cccn1 (centres unmarked) [Example 47, 3-(4-(5-Bromo-2,3-dihydro-1H-inden-1-yloxy)phenyl)-3-(1H-pyrazol-1-yl)propanoic acid] | 6.00 to 7.00
2 | CC#C[C@@H](CC(=O)O)c1ccc(OC2CCc3cc(-c4cccc(OC(F)(F)F)c4)ccc32)cc1 (stereo partly drawn) [Example 50, (3S)-3-(4-(5-(3-(Trifluoromethoxy)phenyl)-2,3-dihydro-1H-inden-1-yloxy)phenyl)hex-4-ynoic acid] | 7.00 to 8.00
3 | Cc1cnc(C(CC(=O)O)c2ccc(OC3Cc4ccccc4C3)cc2)o1 (centres unmarked) [Example 51, 3-(4-(2,3-Dihydro-1H-inden-2-yloxy)phenyl)-3-(5-methyloxazol-2-yl)propanoic acid] | 6.00 to 7.00
4 | CC#C[C@@H](CC(=O)O)c1ccc(OC2CCc3cc(C#N)ccc32)cc1 (stereo partly drawn) [Example 54, (3S)-3-(4-(5-Cyano-2,3-dihydro-1H-inden-1-yloxy)phenyl)hex-4-ynoic acid] | 7.00 to 8.00
5 | CC#C[C@@H](CC(=O)O)c1ccc(OC2CCc3cc(-c4cc(OC)ccc4F)ccc32)cc1 (stereo partly drawn) [Example 55, (3S)-3-(4-(5-(2-Fluoro-5-methoxyphenyl)-2,3-dihydro-1H-inden-1-yloxy)phenyl)hex-4-ynoic acid] | 6.00 to 7.00
6 | COc1ccc(F)c(-c2ccc3c(c2)CCC3Oc2ccc([C@H](C=C(C)C)CC(=O)O)cc2)c1 (some centres unmarked) [Example 56] | 5.00 to 6.00
7 | COc1ccc(F)c(-c2ccc3c(c2)CCC3Oc2ccc([C@@H](C=C(C)C)CC(=O)O)cc2)c1 (some centres unmarked) [Example 57] | 6.00 to 7.00
8 | Cn1ccnc1[C@@H](CC(=O)O)c1ccc(OC2CCc3cc(Cl)ccc32)cc1 (stereo partly drawn) [Example 58, (3S)-3-(4-(5-Chloro-2,3-dihydro-1H-inden-1-yloxy)phenyl)-3-(1-methyl-1H-imidazol-2-yl)propanoic acid] | 5.00 to 6.00
9 | CC#C[C@H](CC(=O)O)c1ccc(OC2CCc3cc(-c4cccc(OCC)c4)ccc32)cc1 (stereo partly drawn) [Example 59, (3R)-3-(4-(5-(3-Ethoxyphenyl)-2,3-dihydro-1H-inden-1-yloxy)phenyl)hex-4-ynoic acid] | < 5.00
10 | CC#C[C@H](CC(=O)O)c1ccc(OC2CCc3cc(-c4ccc5c(c4)OCO5)ccc32)cc1 (stereo partly drawn) [Example 60, (3R)-3-(4-(5-(Benzo[d][1,3]dioxol-5-yl)-2,3-dihydro-1H-inden-1-yloxy)phenyl)hex-4-ynoic acid] | < 5.00
11 | CC#C[C@H](CC(=O)O)c1ccc(OC2CCc3cc(-c4cccc(OC)c4OC)ccc32)cc1 (stereo partly drawn) [Example 61, (3R)-3-(4-(5-(2,3-Dimethoxyphenyl)-2,3-dihydro-1H-inden-1-yloxy)phenyl)hex-4-ynoic acid] | < 5.00
12 | CC#C[C@H](CC(=O)O)c1ccc(OC2CCc3cc(-c4cccc(OC)c4)ccc32)cc1 (stereo partly drawn) [Example 62, (3R)-3-(4-(5-(3-Methoxyphenyl)-2,3-dihydro-1H-inden-1-yloxy)phenyl)hex-4-ynoic acid] | < 5.00
13 | CC#C[C@H](CC(=O)O)c1ccc(OC2CCc3cc(-c4cccc(OC(F)(F)F)c4)ccc32)cc1 (stereo partly drawn) [Example 63, (3R)-3-(4-(5-(3-(trifluoromethoxy)phenyl)-2,3-dihydro-1H-inden-1-yloxy)phenyl)hex-4-ynoic acid] | < 5.00
14 | CC#C[C@H](CC(=O)O)c1ccc(OC2CCc3cc(-c4c(C)cc(C)cc4C)ccc32)cc1 (stereo partly drawn) [Example 64, (3R)-3-(4-(5-Mesityl-2,3-dihydro-1H-inden-1-yloxy)phenyl)hex-4-ynoic acid] | < 5.00
15 | CC#C[C@H](CC(=O)O)c1ccc(OC2CCc3cc(-c4ccccc4OCC)ccc32)cc1 (stereo partly drawn) [Example 65, (3R)-3-(4-(5-(2-Ethoxyphenyl)-2,3-dihydro-1H-inden-1-yloxy)phenyl)hex-4-ynoic acid] | < 5.00
16 | CC#C[C@H](CC(=O)O)c1ccc(OC2CCc3cc(-c4cc(OCC)ccc4F)ccc32)cc1 (stereo partly drawn) [Example 66, (3R)-3-(4-(5-(5-Ethoxy-2-fluorophenyl)-2,3-dihydro-1H-inden-1-yloxy)phenyl)hex-4-ynoic acid] | < 5.00
17 | CC#C[C@H](CC(=O)O)c1ccc(OC2CCc3cc(-c4cccc(OC)c4F)ccc32)cc1 (stereo partly drawn) [Example 67, (3R)-3-(4-(5-(2-Fluoro-3-methoxyphenyl)-2,3-dihydro-1H-inden-1-yloxy)phenyl)hex-4-ynoic acid] | < 5.00
18 | CC#C[C@H](CC(=O)O)c1ccc(OCC2CCCCC2)cc1 [Example 68, (R)-3-(4-(Cyclohexylmethoxy)phenyl)hex-4-ynoic acid] | 5.00 to 6.00

Row | Compound | pEC50
19 | CC#C[C@@H](CC(=O)O)c1ccc(OCCC2CCCCC2)cc1 [Example 69, (S)-3-(4-(2-cyclohexylethoxy)phenyl)hex-4-ynoic acid] | 6.00 to 7.00
20 | CC#C[C@@H](CC(=O)O)c1ccc(OCCC2CCCC2)cc1 [Example 70, (S)-3-(4-(2-cyclopentylethoxy)phenyl)hex-4-ynoic acid] | 6.00 to 7.00
21 | Cn1ccnc1[C@@H](CC(=O)O)c1ccc(OCc2ccc3c(c2)C(C)(C)CCC3(C)C)cc1 [Example 71, (S)-3-(1-Methyl-1H-imidazol-2-yl)-3-[4-(5,5,8,8-tetramethyl-5,6,7,8-tetrahydro-naphthalen-2-ylmethoxy)-phenyl]-propionic acid] | 6.00 to 7.00
22 | Cn1ncnc1[C@@H](CC(=O)O)c1ccc(OCc2ccc3c(c2)C(C)(C)CCC3(C)C)cc1 [Example 72, (S)-3-(2-Methyl-2H-[1,2,4]triazol-3-yl)-3-[4-(5,5,8,8-tetramethyl-5,6,7,8-tetrahydro-naphthalen-2-ylmethoxy)-phenyl]-propionic acid] | 6.00 to 7.00
23 | Cn1nncc1[C@@H](CC(=O)O)c1ccc(OCc2ccc3c(c2)C(C)(C)CCC3(C)C)cc1 [Example 73, (S)-3-(3-methyl-3H-1,2,3-triazol-4-yl)-3-(4-((5,5,8,8-tetramethyl-5,6,7,8-tetrahydronaphthalen-2-yl)methoxy)phenyl)propanoic acid] | 7.00 to 8.00
24 | Cn1cncc1[C@@H](CC(=O)O)c1ccc(OCc2ccc3c(c2)C(C)(C)CCC3(C)C)cc1 [Example 74, (S)-3-(1-methyl-1H-imidazol-5-yl)-3-(4-((5,5,8,8-tetramethyl-5,6,7,8-tetrahydronaphthalen-2-yl)methoxy)phenyl)propanoic acid] | 6.00 to 7.00
25 | CC1(C)CCC(C)(C)c2cc(COc3ccc([C@H](CC(=O)O)c4cnco4)cc3)ccc21 [Example 75, (S)-3-(Oxazol-5-yl)-3-(4-((5,5,8,8-tetramethyl-5,6,7,8-tetrahydronaphthalen-2-yl)methoxy)phenyl)propanoic acid] | 6.00 to 7.00
26 | CC1(C)CCC(C)(C)c2cc(COc3ccc([C@H](CC(=O)O)c4ccon4)cc3)ccc21 [Example 76, (S)-3-(Isoxazol-3-yl)-3-(4-((5,5,8,8-tetramethyl-5,6,7,8-tetrahydronaphthalen-2-yl)methoxy)phenyl)propanoic acid] | 7.00 to 8.00
27 | CC1(C)CCC(C)(C)c2cc(COc3ccc([C@@H](CC(=O)O)c4ccon4)cc3)ccc21 [Example 77, (R)-3-(Isoxazol-3-yl)-3-(4-((5,5,8,8-tetramethyl-5,6,7,8-tetrahydronaphthalen-2-yl)methoxy)phenyl)propanoic acid] | 5.00 to 6.00
28 | Cn1ccnc1[C@@H](CC(=O)O)c1ccc(OCc2ccc3c(c2)CCCC3)cc1 [Example 80, (S)-3-(i-Methyl-1H-imidazol-2-yl)-3-[4-(5,6,7,8-tetrahydro-naphthalen-2-ylmethoxy)-phenyl]-propionic acid] | 6.00 to 7.00
29 | Cn1nnnc1[C@@H](CC(=O)O)c1ccc(OCc2ccc3c(c2)C(C)(C)CCC3(C)C)cc1 [Example 81, (S)-3-(1-Methyl-1H-tetrazol-5-yl)-3-[4-(5,5,8,8-tetramethyl-5,6,7,8-tetrahydro-naphthalen-2-ylmethoxy)-phenyl]-propionic acid] | 7.00 to 8.00
30 | CC1(C)CCC(C)(C)c2cc(COc3ccc([C@H](CC(=O)O)c4ncco4)cc3)ccc21 [Example 82, (S)-3-Oxazol-2-yl-3-[4-(5,5,8,8-tetramethyl-5,6,7,8-tetrahydro-naphthalen-2-ylmethoxy)-phenyl]-propionic acid] | 7.00 to 8.00
31 | Cn1cnnc1[C@H](CC(=O)O)c1ccc(OCc2ccc3c(c2)C(C)(C)CCC3(C)C)cc1 [Example 83] | < 5.00
32 | Cn1cnnc1[C@@H](CC(=O)O)c1ccc(OCc2ccc3c(c2)C(C)(C)CCC3(C)C)cc1 [Example 84] | 6.00 to 7.00
33 | CC1(C)CCC(C)(C)c2cc(COc3ccc(C(CC(=O)O)C4=NOCC4)cc3)ccc21 (centres unmarked) [Example 85, 3-(4,5-Dihydroisoxazol-3-yl)-3-(4-((5,5,8,8-tetramethyl-5,6,7,8-tetrahydronaphthalen-2-yl)methoxy)phenyl)propanoic acid] | 6.00 to 7.00
34 | Cn1ccnc1[C@@H](CC(=O)O)c1ccc(OCc2ccc3c(c2)C(C)(C)CCC3)cc1 [Example 86, (S)-3-(4-((8,8-Dimethyl-5,6,7,8-tetrahydronaphthalen-2-yl)methoxy)phenyl)-3-(1-methyl-1H-imidazol-2-yl)propanoic acid] | 6.00 to 7.00
35 | C[C@H](Oc1ccc([C@H](CC(=O)O)c2nccn2C)cc1)c1ccc2c(c1)C(C)(C)CCC2(C)C [Example 87, (3S)-3-(1-Methyl-1H-imidazol-2-yl)-3-(4-(1-(5,5,8,8-tetramethyl-5,6,7,8-tetrahydronaphthalen-2-yl)ethoxy)phenyl)propanoic acid] | < 5.00
